The source of these data is paper PMC5017989, “Anti-inflammatory and acetylcholinesterase activity of extract, fractions and five compounds isolated from the leaves and twigs of Artemisia annua growing in Cameroon” (SpringerPlus, 2016).

As usually defined, the inhibition is the relative decrease from the control value, in per cent. For orientation: viability means a read-out of living cells in per cent, often relative to untreated cells.

SMILES strings stand for the structures. Read-outs that look alike come from different tables or passages of the source. Marks after values point to notes of the source that are not given here.

The test system of series [1] is NO production in LPS-activated RAW 264.7 macrophages. Briefly: Nitric oxide inhibitory activity in LPS-activated RAW 264.7 macrophages (Griess reagent). Format: cell-based, murine. The following applies: for inhibition at 0.5 µg/mL / inhibition at 2 µg/mL / inhibition at 5 µg/mL / inhibition at 20 µg/mL: Mus musculus, relative to LPS control; for inhibition at 0.5 µg/mL: RAW264.7, sample at 0.5 µg/mL; for inhibition at 2 µg/mL: RAW264.7, sample at 2 µg/mL; for inhibition at 5 µg/mL: RAW264.7, sample at 5 µg/mL; for inhibition at 20 µg/mL: RAW264.7, sample at 20 µg/mL; for NO: LPS-activated RAW 264.7. How it is done: Compounds were assayed for their potential to inhibit the NO production in macrophage cells.
(§1) The RAW 264.7 macrophages cell line was purchased from the American Type Culture Collection (ATCC TIB-71, Rockville, MD, USA) and cultured in a plastic culture flask in DMEM containing L-glutamine supplemented with 10 % FCS and 1 % PSF solution at 37 °C with 5 % CO2. Cells were seeded (10^4 per well) in 96 well-microtitre plate and activated LPS alone (control) or with samples at different concentrations. Quercetin was used as a positive control (Mu et al. [2001]).
The amount of nitric oxide released was determined by the Griess reagent as reported previously (Dzoyem et al. [2015]).
(Griess reagent forms a coloured azo dye with nitrite.)

A further series can be described thus: in vitro. In kind it is cell-based, murine. The conditions noted are these: mouse, MTT, cells with LPS only = 100 %, read-out: % Cell viability. On the procedure:
as §1
(§2) The number of viable cells was determined as previously described by Mosmann ([1983]) on the macrophage cells with few modifications. Briefly, the cells were topped up with 200 µL DMEM after removal of media. 30 µL of 15 mg/mL MTT were added to each well and cells were incubated at 37 °C with 5 % CO2. The medium was aspirated after 2 h, and the formazan salt formed was dissolved using DMSO. The absorbance was read at 570 nm on a BioTek Synergy microplate reader. Cell viability percentage was then calculated with reference to the control (cells with LPS only considered as 100 % viable).

The test system of the next series is RAW 264.7 macrophages. Briefly: in vitro. Format: cell-based, murine. The conditions noted are these: sample at 20 µg/mL; MTT; cells with LPS only = 100 %. How it is done:
as §1, §2

The target of a further series is acetylcholinesterase (Electrophorus electricus, UniProt O42275). The series is described as follows: biochemical.
Chain of acetylcholinesterase (O42275 24-633): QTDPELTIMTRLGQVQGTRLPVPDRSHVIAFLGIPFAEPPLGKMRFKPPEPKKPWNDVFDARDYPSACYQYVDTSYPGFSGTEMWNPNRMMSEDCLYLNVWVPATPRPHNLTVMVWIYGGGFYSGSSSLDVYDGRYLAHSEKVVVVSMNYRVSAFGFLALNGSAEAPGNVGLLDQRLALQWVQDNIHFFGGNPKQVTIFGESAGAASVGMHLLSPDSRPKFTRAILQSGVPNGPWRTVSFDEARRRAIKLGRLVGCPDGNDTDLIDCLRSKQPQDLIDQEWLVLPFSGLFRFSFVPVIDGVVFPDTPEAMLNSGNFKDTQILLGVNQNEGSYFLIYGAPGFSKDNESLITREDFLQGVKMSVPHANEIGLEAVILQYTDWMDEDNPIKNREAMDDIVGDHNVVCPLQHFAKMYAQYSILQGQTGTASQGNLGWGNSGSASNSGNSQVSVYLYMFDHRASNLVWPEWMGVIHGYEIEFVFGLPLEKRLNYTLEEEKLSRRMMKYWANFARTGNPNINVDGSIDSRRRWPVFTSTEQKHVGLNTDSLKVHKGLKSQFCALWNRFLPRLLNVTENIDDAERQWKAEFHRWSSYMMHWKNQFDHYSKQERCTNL

Consider `C[C@@H]1CC[C@H]2[C@@H](C)C(=O)O[C@@H]3O[C@@]4(C)CC[C@@H]1[C@]32OO4` [Compound 1, artemisinin], for which, in series [1], the inhibition at 0.5 µg/mL turned out to be 56.3 ± 14.4%. Besides, in series [1], the inhibition at 2 µg/mL was determined as 83.1 ± 9.72%. In addition, the inhibition at 5 µg/mL in series [1] came out at 89.1 ± 7.05%. Also, the inhibition at 20 µg/mL in series [1] amounted to 99.2 ± 2.16%. In addition, the “NO” value in series [1] (sample at 0.5 µg/mL) was 3.36 ± 1.10 µM; in series [1] (sample at 2 µg/mL), 1.30 ± 0.75 µM; in series [1] (sample at 5 µg/mL), 0.84 ± 0.54 µM; in series [1] (sample at 20 µg/mL), 0.07 ± 0.17 µM. Further, the viability in “in vitro” (sample at 0.5 µg/mL) is 110 ± 6.22%; in “in vitro” (sample at 2 µg/mL) it was 104 ± 9.66%; in the series “in vitro” (sample at 5 µg/mL) it was 91.3 ± 2.2%; in “in vitro” (sample at 20 µg/mL), 80.9 ± 1.71%. The “% Cell viability” value in the series with RAW 264.7 macrophages is given as “without obvious cytotoxic effect”. For the same compound, the inhibition at 100 µg/mL against acetylcholinesterase is 71.7 ± 7.9%.
With `COc1cc2ccc(=O)oc2cc1O` [Compound 2, scopoletin], the inhibition at 0.5 µg/mL in series [1] amounted to 65.5 ± 4.41%. In addition, the inhibition at 2 µg/mL in series [1] was found to be 72 ± 4.22%. Also, the inhibition at 5 µg/mL in series [1] came to 77.7 ± 2.09%. Moreover, in series [1], the inhibition at 20 µg/mL amounted to 98.46 ± 0.79%. Besides, the “NO” value in series [1] (sample at 0.5 µg/mL) came to 2.65 ± 0.34 µM; in series [1] (sample at 2 µg/mL), 2.15 ± 0.32 µM; in series [1] (sample at 5 µg/mL), 1.71 ± 0.16 µM; in series [1] (sample at 20 µg/mL), 0.12 ± 0.06 µM. Besides, the viability in the series “in vitro” (sample at 0.5 µg/mL) was 80.3 ± 8.56%; in “in vitro” (sample at 2 µg/mL), 69.9 ± 9.23%; in the series “in vitro” (sample at 5 µg/mL), 88.5 ± 1.19%; in “in vitro” (sample at 20 µg/mL) it was 81.6 ± 4.35%. Moreover, the “% Cell viability” value with RAW 264.7 macrophages is “without obvious cytotoxic effect”. For the same compound, the inhibition at 100 µg/mL on acetylcholinesterase was 56.3 ± 4.92%.
Regarding `COc1cc(-c2oc3cc(OC)c(OC)c(O)c3c(=O)c2OC)ccc1O` [Compound 3, chrysosplenetin], the inhibition at 0.5 µg/mL in series [1] was 37.7 ± 2.88%. Besides, the inhibition at 2 µg/mL in series [1] turned out to be 81.7 ± 1.04%. Also, the inhibition at 5 µg/mL in series [1] came out at 98.6 ± 1.67%. In addition, in series [1], the inhibition at 20 µg/mL is over 100%. The “NO” value is 4.79 ± 0.22 µM in series [1] (sample at 0.5 µg/mL), 1.41 ± 0.08 µM in series [1] (sample at 2 µg/mL), 0.10 ± 0.13 µM in series [1] (sample at 5 µg/mL) and -0.32 ± 0.02 µM in series [1] (sample at 20 µg/mL). For the same compound, the viability in “in vitro” (sample at 0.5 µg/mL) was 95.6 ± 4.88%; in “in vitro” (sample at 2 µg/mL), 67.4 ± 3.74%; in “in vitro” (sample at 5 µg/mL) it was 28.5 ± 2.18%; in the series “in vitro” (sample at 20 µg/mL) it was 15.9 ± 2.37%. Also, on acetylcholinesterase, the inhibition at 100 µg/mL is 80 ± 9.67%.
Turning to `COc1ccc(-c2oc3cc(OC)c(OC)c(O)c3c(=O)c2O)cc1O` [Compound 4, eupatin], the inhibition at 0.5 µg/mL in series [1] turned out to be 83.4 ± 1.96%. In addition, the inhibition at 2 µg/mL in series [1] stood at 97.9 ± 1.08%. In series [1], the inhibition at 5 µg/mL came out at 97.8 ± 6.28%. In series [1], the inhibition at 20 µg/mL is over 100%. For the same compound, the “NO” value in series [1] (sample at 0.5 µg/mL) was 1.27 ± 0.15 µM; in series [1] (sample at 2 µg/mL), 0.16 ± 0.08 µM; in series [1] (sample at 5 µg/mL), 0.17 ± 0.48 µM; in series [1] (sample at 20 µg/mL), -0.20 ± 0.02 µM. The viability amounted to 79.3 ± 5.34% in the series “in vitro” (sample at 0.5 µg/mL), 48.5 ± 3.88% in the series “in vitro” (sample at 2 µg/mL), 17.6 ± 1.66% in “in vitro” (sample at 5 µg/mL) and 7.49 ± 0.62% in “in vitro” (sample at 20 µg/mL). The “% Inhibition (acetylcholinesterase)” value on acetylcholinesterase (single concentration of 100 µg/mL (compounds and galantamine)) was 58.22 ± 2.73^b %.
With `O=c1c(O)c(-c2ccc(O)c(O)c2)oc2cc(O)cc(O)c12` [Quercetin, reference compound], the inhibition at 0.5 µg/mL in series [1] was 34.9 ± 2.76%. In addition, the inhibition at 2 µg/mL in series [1] amounted to 43 ± 3.89%. In series [1], the inhibition at 5 µg/mL amounted to 85.7 ± 2.34%. In addition, the inhibition at 20 µg/mL in series [1] was 103 ± 1.08%. Further, the “NO” value was 5.01 ± 1.67 µM in series [1] (sample at 0.5 µg/mL), 4.38 ± 0.30 µM in series [1] (sample at 2 µg/mL) and 1.10 ± 0.18 µM in series [1] (sample at 5 µg/mL). Also, the viability was 105 ± 6.13% in “in vitro” (sample at 0.5 µg/mL), 98.3 ± 5.17% in the series “in vitro” (sample at 2 µg/mL), 76.2 ± 2.06% in the series “in vitro” (sample at 5 µg/mL) and 23.1 ± 5.37% in “in vitro” (sample at 20 µg/mL).
